Source: ChEMBL document CHEMBL1148144, “Horiolide, a novel norditerpenoid from Indian ocean soft coral of the genus Sinularia” (J Nat Prod, 2002)
Calls of active or inactive are those of the source.

Columns and labels:
Type in all cases: functional, organism-based
[1] = tested on: Staphylococcus aureus; assay: Antibacterial activity against Staphylococcus aureus
[2] = tested on: Chlorella salina; assay: Antialgal activity against Chlorella salina
[3] = tested on: Chlorella vulgaris; assay: Antialgal activity against Chlorella vulgaris
[4] = tested on: Bacillus subtilis; assay: Antibacterial activity against Bacillus subtilis
[5] = tested on: Escherichia coli; assay: Antibacterial activity against Escherichia coli
[6] = tested on: Chlorella sorokiniana; assay: Antialgal activity against Chlorella sorokiniana
[7] = tested on: Rhizomucor miehei; assay: Antifungal activity against Mucor miehei

Measured: Activity

C=C(C)[C@@H]1CC(=O)[C@H]2[C@H](C1)[C@@H]1C(=O)O[C@H]3[C@@H]1CC(=O)[C@H]2[C@H]3C(C)=O
inactive: all assays above
